# Reference: PMC12609579, “Acute Myeloid Leukemia: A Key Role of DGKα and DGKζ in Cell Viability” (Cells, 2025)
# Columns and labels:
# [1] = tested on: HL-60 cells; design: method as in PMID 37509516; settings: cited from earlier work; for effect on viability: HL-60; for IC50: HL-60, 24 h, read-out: IC50 (cytotoxicity)
# [2] = tested on: HEL cells; design: method as in PMID 37509516; settings: cited from earlier work; for IC50: 24 h, read-out: IC50 (cytotoxicity)
# [3] = tested on: AML cell lines (HL-60, HEL, THP-1, K562); test: alamarBlue cell viability assay, AML cell line panel (serotonin receptor inhibitors); type: cell-based, human; settings: 24 h; for effects on AML cell viability: increasing concentrations
# Procedure: The alamarBlue assay was performed to assess cell viability in presence of chemical inhibitors. A total of 50,000 cells per well were seeded in a 96-wells plate in a volume of 100 μL of complete medium together with 10 μL of 10× concentrated inhibitor solution and then incubated for either 24 or 72 h. Each experimental condition was performed in technical quadruplicates, using cells treated with equal amounts of DMSO vehicle as control and medium alone as background. After incubation, alamarBlue was added to each well at a final concentration of 0.15 mg/mL. The fluorescence of the samples was measured 24 h later using a Spark 10 M Multimode Plate Reader (Tecan, Switzerland) with excitation and emission wavelengths of 535 nm and 590 nm, respectively. For dose–response curve fitting, fluorescence values were normalized according to the following formula:Viability (%) = [(sample mean fluorescence)/(DMSO control mean fluorescence)] ∗ 100 […]
# Supplementary figure S3: Effects of serotonin receptor inhibitors on AML cell lines viability.
# AML cells were treated with increasing concentration of the indicated inhibitor for 24 hours followed by alamarBlue viability assay for additional 24 hours. Experiments were run in quadruplicates. Data are the mean ± SEM of 4 or more experiments interpolated as [inhibitor] vs. % viability. […]
# [4] = molecular target: serotonin 5-HT2A receptor; settings: cited from earlier work
structure (smiles),measurement,setting,value
Cc1ccc2c(C(=O)CN3CCN(C(=O)c4ccco4)CC3)c(C)[nH]c2c1 [AMB639752],effect on viability,[1],did not significantly affect viability
same,effect on viability,[2],did not significantly affect viability
O=C1/C(=C/C=C/c2ccco2)SC(=S)N1NS(=O)(=O)c1ccccc1 [CU-3],effect on viability,[1],did not significantly affect viability
same,effect on viability,[2],did not significantly affect viability
Cc1nc2sccn2c(=O)c1CCN1CCC(=C(c2ccccc2)c2ccc(F)cc2)CC1 [R59022],IC50,[1],32 µM
same,IC50,[2],49 µM
O=c1c2ccccc2[nH]c(=S)n1CCN1CCC(=C(c2ccc(F)cc2)c2ccc(F)cc2)CC1 [R59949],IC50,[1],72 µM
same,IC50,[2],80 µM
O=C(c1ccc(F)cc1)C1CCN(CCn2c(=S)[nH]c3ccccc3c2=O)CC1 [altanserin],effects on AML cell viability,[3],negligible effects
same,Ki,[4],0.13 nM
CCN(CC)CCNC(=O)c1cc(Cl)c(N)cc1OC [metoclopramide],highest reduction in viability,[3]; 100 μM,11%
same,effects on AML cell viability,[3],negligible effects
Cc1nc2n(c(=O)c1CCN1CCC(c3noc4cc(F)ccc34)CC1)CCCC2 [risperidone],effects on AML cell viability,[3],negligible effects
